For data set [1], the system named is tumor necrosis factor alpha (TNF-α). The conditions noted are these: peripheral blood mononuclear cells; cited from earlier work.
In the next data set the test system is COX-1. The conditions noted are these: in vitro; cited from earlier work.
In data set [2] the test system is cells derived from patients with multiple myeloma and del (5q) myelodysplastic syndromes. The conditions noted are these: cells from patients with multiple myeloma and del (5q) MDS; cited from earlier work.
Data set [3] is described as follows: Estimated solubility of lenalidomide in solvents at ambient temperature (aliquot addition, visual inspection). The data set is classed as physicochemical. The conditions noted are these: organic solvent or mixture, thermodynamic from solid. The protocol: Solubility was estimated by treating a weighed sample of lenalidomide with measured aliquots of the test solvent at ambient temperature, with shaking and/or sonication between aliquots. Dissolution was determined by visual inspection. Solubility numbers were calculated by dividing the total amount of solvent used to dissolve the sample by the weight of the sample. The actual solubilities may be greater than the numbers calculated because of the use of solvent aliquots that were too large or because of slow dissolution rates. […] The solubility number is expressed as “greater than” if dissolution occurred on addition of the first solvent aliquot.

A further data set has as its system cyclooxygenase-2 (COX-2). The conditions noted are these: in vitro; cited from earlier work.
Data set [4] deals with hematopoietic tumor models, including multiple myeloma. The conditions noted are these: some in vivo nonclinical hematopoietic tumor models; cited from earlier work.

SMILES strings stand for the structures. In brackets after ≈: the same amount, converted by molar mass.

Broadly, the solubility is the dissolved amount per volume that the medium holds. For the molecule `Nc1cccc2c1CN(C1CCC(=O)NC1=O)C2=O` (stereo not drawn) [Lenalidomide, 3-(4-amino-1-oxo-1,3-dihydro-isoindol-2-yl)-piperidine-2,6-dione], the “Secretion of TNF-α” value in data set [1] is listed as “inhibits the secretion”. Moreover, the “Expression of COX-1” value in the data set on COX-1 is on record as “not”. In data set [2], the “Growth of cells in vitro” value was “inhibits the growth”. Moreover, the solubility in data set [3] (acetone) is 2200 µg/mL (≈ 8.49 mM); in data set [3] (acetonitrile), 3400 µg/mL (≈ 13.1 mM); in data set [3] (methanol) it was 2600 µg/mL (≈ 10 mM); in data set [3] (tetrahydrofuran) it was 3000 µg/mL (≈ 11.6 mM). For the same molecule, the “Expression of COX-2” value in the data set with cyclooxygenase-2 (COX-2) was “inhibited the expression”. Also, the Tumor growth entry in data set [4] is “delay in tumor growth”.

Source of the values: patent US9808450B2, “Solid forms comprising 3-(4-amino-1-OXO-1,3-dihydro-isoindol-2-yl)-piperidine-2,6-dione and a coformer, compositions and methods of use thereof” (CELGENE CORPORATION, priority 2013, dated 2017).
